Test results taken from ChEMBL document CHEMBL1201862, “PubChem BioAssay data set” (2004).
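Where inhibition never reached the appropriate level, the endpoint shown equals the highest concentration tested. Otherwise, values were interpolated linearly from a five-concentration, 48-hour dose response in 96-well plates. GI50 marks 50% less growth.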 Active and inactive are the calls of the source. Rule as the data show it: active = GI50 up to about 1.1 µM and inactive = higher.

Tests used:
Assay in all cases: NCI tumour cell line growth inhibition, 48 h
UO-31 = tested on: UO-31
DU-145 = tested on: DU-145
SNB-19 = tested on: SNB-19
SK-MEL-28 = tested on: SK-MEL-28
LOX IMVI = tested on: LOX IMVI
EKVX = tested on: EKVX
SF-539 = tested on: SF-539
MOLT-4 = tested on: MOLT-4
SF-295 = tested on: SF-295
Hs-578T = tested on: Hs-578T
UACC-257 = tested on: UACC-257
UACC-62 = tested on: UACC-62
T47D = tested on: T47D
RXF 393 = tested on: RXF 393
A549 = tested on: A549
NCI/ADR-RES = tested on: NCI/ADR-RES
BT-549 = tested on: BT-549
DLD-1 = tested on: DLD-1
SNB-78 = tested on: SNB-78
M19-MEL = tested on: M19-MEL

Measured: GI50

CCCCCCCCCCCCCCCCP(=O)([O-])OCC[N+](C)(C)C
inactive: UO-31 14.9 µM | DU-145 14.7 µM | SNB-19 30 µM | SK-MEL-28 18.5 µM | LOX IMVI 14.9 µM | EKVX 20.1 µM | SF-539 24.5 µM | MOLT-4 17.2 µM | SF-295 12.9 µM | Hs-578T 15.8 µM | UACC-257 16.9 µM | UACC-62 13.9 µM | T47D 17.6 µM | RXF 393 3.93 µM | A549 18.1 µM | NCI/ADR-RES 18.7 µM | BT-549 9.53 µM

CC(C)(C)OC(=O)NC(CSSCC(NC(=O)OC(C)(C)C)C(=O)O)C(=O)O (centres undefined)
inactive: UO-31 > 100 µM | DU-145 > 100 µM | SNB-19 > 100 µM | SK-MEL-28 > 100 µM | LOX IMVI > 100 µM | EKVX > 100 µM | SF-539 > 100 µM | MOLT-4 > 100 µM | SF-295 > 100 µM | Hs-578T > 100 µM | UACC-257 > 100 µM | UACC-62 > 100 µM | T47D > 100 µM | RXF 393 > 100 µM | A549 > 100 µM | NCI/ADR-RES > 100 µM | BT-549 > 100 µM

CC(C)C(=O)Nc1cc(C(F)(F)F)ccc1[N+](=O)[O-]
inactive: UO-31 > 100 µM | DU-145 > 100 µM | SNB-19 > 100 µM | SK-MEL-28 > 100 µM | LOX IMVI > 100 µM | EKVX > 100 µM | SF-539 > 100 µM | MOLT-4 > 100 µM | SF-295 > 100 µM | Hs-578T > 100 µM | UACC-257 > 100 µM | UACC-62 > 100 µM | T47D 81.5 µM | RXF 393 > 100 µM | A549 > 100 µM | NCI/ADR-RES > 100 µM | BT-549 > 100 µM

COC(=O)[C@]1(C)CCCn2c(=O)n(-c3ccccc3)c(=O)n21
inactive: UO-31 > 100 µM | DU-145 > 100 µM | SNB-19 > 100 µM | SK-MEL-28 > 100 µM | LOX IMVI > 100 µM | EKVX > 100 µM | SF-539 > 100 µM | MOLT-4 > 100 µM | SF-295 > 100 µM | Hs-578T > 100 µM | UACC-257 > 100 µM | UACC-62 > 100 µM | T47D > 100 µM | RXF 393 > 100 µM | A549 > 100 µM | NCI/ADR-RES > 100 µM | BT-549 > 100 µM

C=C1CC[C@](C)(O)[C@@]2(C)CC[C@H]3C(=C(C)C)C(=O)C[C@]3(C)C[C@H]12
inactive: UO-31 20 µM | DU-145 > 50 µM | SNB-19 > 50 µM | SK-MEL-28 43.7 µM | LOX IMVI 10.4 µM | EKVX > 50 µM | SF-539 > 50 µM | MOLT-4 10.9 µM | SF-295 > 50 µM | Hs-578T > 50 µM | UACC-257 > 50 µM | UACC-62 16.5 µM | T47D 26.5 µM | RXF 393 18.2 µM | A549 42.6 µM | NCI/ADR-RES 27.7 µM | BT-549 25.8 µM

Cc1ccc(S(=O)(=O)N/N=C(/c2nc3ccc([N+](=O)[O-])cc3nc2O)C(O)c2ccc(C(O)/C(=N\NS(=O)(=O)c3ccc(C)cc3)c3nc4ccc([N+](=O)[O-])cc4nc3O)cc2)cc1 (centres undefined)
inactive: UO-31 38.4 µM | SNB-19 > 100 µM | SK-MEL-28 > 100 µM | LOX IMVI 20.3 µM | EKVX 81.7 µM | SF-539 42.9 µM | MOLT-4 28.2 µM | DLD-1 33.3 µM | UACC-257 14.8 µM | UACC-62 68.4 µM | SNB-78 > 100 µM | RXF 393 > 100 µM | A549 49.1 µM

COc1ccc(/C(Cl)=C(\C=O)c2ccc(OC)c(OC)c2)cc1
inactive: UO-31 40.5 µM | SNB-19 41.1 µM | M19-MEL > 100 µM | SK-MEL-28 > 100 µM | LOX IMVI 23.3 µM | EKVX 93.8 µM | SF-539 23.8 µM | MOLT-4 28.6 µM | SF-295 25.4 µM | UACC-62 16.6 µM | SNB-78 29 µM

CCOC(=O)C1CCn2c(nc3c(=O)n(C)c(=O)n(C)c32)S1 (centres undefined)
inactive: SNB-19 > 100 µM | LOX IMVI > 100 µM | EKVX > 100 µM | SF-539 > 100 µM | MOLT-4 > 100 µM | DLD-1 > 100 µM | SF-295 > 100 µM | UACC-257 > 100 µM | UACC-62 > 100 µM | SNB-78 > 100 µM | RXF 393 > 100 µM | A549 > 100 µM

COC(=O)c1s/c(=N\C(=S)N(C)C)n(-c2ccccc2)c1C(=O)OC
inactive: UO-31 > 100 µM | SNB-19 > 100 µM | M19-MEL > 100 µM | SK-MEL-28 > 100 µM | LOX IMVI > 100 µM | EKVX > 100 µM | SF-539 > 100 µM | MOLT-4 66.8 µM | SF-295 > 100 µM | UACC-257 > 100 µM | UACC-62 > 100 µM | SNB-78 > 100 µM | RXF 393 > 100 µM | A549 > 100 µM

O=C1c2cccc3cccc(c23)C(=O)N1O
inactive: UO-31 70.1 µM | DU-145 53.6 µM | SNB-19 95.1 µM | SK-MEL-28 > 100 µM | LOX IMVI 53.2 µM | EKVX > 100 µM | SF-539 50.9 µM | MOLT-4 69.7 µM | SF-295 34.2 µM | Hs-578T 53 µM | UACC-257 > 100 µM | UACC-62 > 100 µM | T47D > 100 µM | RXF 393 24 µM | A549 77.1 µM | NCI/ADR-RES > 100 µM | BT-549 > 100 µM

O=C(NNC(=O)c1ccccc1O)c1ccc(O)cc1
inactive: UO-31 42 µM | DU-145 76.7 µM | SNB-19 > 100 µM | SK-MEL-28 > 100 µM | LOX IMVI 31.6 µM | EKVX 38.3 µM | SF-539 66.7 µM | MOLT-4 36.4 µM | SF-295 33 µM | Hs-578T > 100 µM | UACC-257 89.1 µM | UACC-62 28.1 µM | T47D > 100 µM | RXF 393 > 100 µM | A549 38.8 µM | NCI/ADR-RES 22.1 µM | BT-549 40.6 µM

c1ccc(N/N=C2\NN=C(c3ccccc3)CS2)cc1
inactive: UO-31 12.9 µM | SNB-19 19.3 µM | SK-MEL-28 16.3 µM | LOX IMVI 4.39 µM | EKVX 12.4 µM | SF-539 18.1 µM | MOLT-4 3.66 µM | SF-295 7.46 µM | UACC-257 16 µM | UACC-62 5.81 µM | SNB-78 5.46 µM | RXF 393 7.8 µM | A549 4.78 µM

Nc1nc(Cl)cc(NCC2(CO)CC(c3ccccc3)C2)n1 (centres undefined)
inactive: UO-31 16.6 µM | DU-145 > 100 µM | SNB-19 88.7 µM | SK-MEL-28 53.3 µM | LOX IMVI 7.16 µM | EKVX 5.41 µM | SF-539 > 100 µM | MOLT-4 19.8 µM | SF-295 > 100 µM | Hs-578T 19.2 µM | UACC-257 20.5 µM | UACC-62 32.4 µM | T47D 11.4 µM | RXF 393 58.9 µM | A549 26.2 µM | NCI/ADR-RES 13.8 µM | BT-549 29.3 µM
